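Method: 48-hour compound exposure of cells in 96-well plates, five concentrations, linear interpolation of endpoints. GI50 is the concentration that inhibits growth by half.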 Activity calls are given as the source filed them. Cut-off read from the data, not from the text of the source: active = GI50 up to about 1.1 µM and inactive = higher.
Columns and labels:
Assay in all cases: growth of human tumour cells (NCI), 48 h
SNB-19 = system: SNB-19
NCI-H23 = system: NCI-H23
SN12C = system: SN12C
ACHN = system: ACHN
HOP-92 = system: HOP-92
TK-10 = system: TK-10
SNB-75 = system: SNB-75
SK-MEL-28 = system: SK-MEL-28
T47D = system: T47D
UO-31 = system: UO-31
A498 = system: A498
M14 = system: M14
NCI-H522 = system: NCI-H522
Hs-578T = system: Hs-578T
MCF7 = system: MCF7
RPMI-8226 = system: RPMI-8226
CAKI-1 = system: CAKI-1
MDA-MB-231 = system: MDA-MB-231
RXF 393 = system: RXF 393
KM12 = system: KM12

| SMILES | GI50 (SNB-19) | GI50 (NCI-H23) | GI50 (SN12C) | GI50 (ACHN) | GI50 (HOP-92) | GI50 (TK-10) | GI50 (SNB-75) | GI50 (SK-MEL-28) | GI50 (T47D) | GI50 (UO-31) | GI50 (A498) | GI50 (M14) | GI50 (NCI-H522) | GI50 (Hs-578T) | GI50 (MCF7) | GI50 (RPMI-8226) | GI50 (CAKI-1) | GI50 (MDA-MB-231) | GI50 (RXF 393) | GI50 (KM12) |
| --- | --- | --- | --- | --- | --- | --- | --- | --- | --- | --- | --- | --- | --- | --- | --- | --- | --- | --- | --- | --- |
| Cc1ccc([N+](=O)[O-])cc1S(=O)(=O)Nc1ccc(C2=NN(S(=O)(=O)c3cc([N+](=O)[O-])ccc3C)C(c3ccccc3)C2)cc1 (stereo not given) | 36.4 µM (inactive) | 24.2 µM (inactive) | 28.2 µM (inactive) | 31.8 µM (inactive) | 35.8 µM (inactive) | 30.9 µM (inactive) | 64.6 µM (inactive) | 82.8 µM (inactive) | 41.4 µM (inactive) | 28.6 µM (inactive) | 16.5 µM (inactive) | 30.9 µM (inactive) | 15.7 µM (inactive) | < 0.01 µM (active) | 30.8 µM (inactive) | 22.3 µM (inactive) | 35.8 µM (inactive) | 26.1 µM (inactive) | 36.6 µM (inactive) | 34.9 µM (inactive) |
| COc1ccc(C(=O)c2cc(OC)c(OC)c(OC)c2)cc1 | 0.199 µM (active) | 0.324 µM (active) | 0.705 µM (active) | 1.29 µM (inactive) | 2.41 µM (inactive) | 4.11 µM (inactive) | 0.0726 µM (active) | 0.733 µM (active) | 27.5 µM (inactive) | 1 µM (active) | 0.0713 µM (active) | 0.0753 µM (active) | 0.0715 µM (active) | 0.111 µM (active) | 0.0991 µM (active) | 0.169 µM (active) | 0.0738 µM (active) | 0.0881 µM (active) | 0.331 µM (active) | 0.0481 µM (active) |
| CC1Cc2cc(O)ccc2C2[C@@H]1C1CC[C@H](O)[C@@]1(C)C[C@@H]2O[N+](=O)[O-] (stereo not given in full) | 9.68 µM (inactive) | 12 µM (inactive) | 14.7 µM (inactive) | 14.7 µM (inactive) | 13.1 µM (inactive) | 13.2 µM (inactive) | 10.3 µM (inactive) | 17.5 µM (inactive) | 9.55 µM (inactive) | 13.7 µM (inactive) | 31.8 µM (inactive) | 6.15 µM (inactive) | 5.62 µM (inactive) | 3.21 µM (inactive) | 4.86 µM (inactive) | 5.64 µM (inactive) | 10.2 µM (inactive) | 12.1 µM (inactive) | 2.73 µM (inactive) | 19.7 µM (inactive) |
| CC(C)=CCC/C(C)=C/CC/C(C)=C/CC/C(C)=C/C=C/C=C(\C)CC/C=C(\C)CC/C=C(\C)CCC=C(C)C | > 100 µM (inactive) | 68.2 µM (inactive) | > 39.4 µM (inactive) | 31.5 µM (inactive) | 45.5 µM (inactive) | > 58.7 µM (inactive) | > 71.6 µM (inactive) | > 100 µM (inactive) | 72.1 µM (inactive) | 25.3 µM (inactive) | > 100 µM (inactive) | > 100 µM (inactive) | 14.8 µM (inactive) | > 82.6 µM (inactive) | 44.2 µM (inactive) | 38.4 µM (inactive) | 16.8 µM (inactive) | > 70.5 µM (inactive) | > 100 µM (inactive) | 31.8 µM (inactive) |
| O=C(c1c(F)c(F)c(F)c(F)c1F)N1CCN(C(=O)c2c(F)c(F)c(F)c(F)c2F)C1=S | 16.4 µM (inactive) | 6.81 µM (inactive) | 8.11 µM (inactive) | 7.69 µM (inactive) | 3.89 µM (inactive) | 13.9 µM (inactive) | 11 µM (inactive) | 4.8 µM (inactive) | 6.46 µM (inactive) | 5.55 µM (inactive) | 18.1 µM (inactive) | 1.56 µM (inactive) | 0.582 µM (active) | 4.66 µM (inactive) | 5.43 µM (inactive) | 2.43 µM (inactive) | 2.69 µM (inactive) | 6.75 µM (inactive) | 2.62 µM (inactive) | 6 µM (inactive) |
| CCN1CCN(c2nc3ccccc3c3c2CCOc2ccccc2-3)CC1 | 39.1 µM (inactive) | > 62.5 µM (inactive) | > 55.3 µM (inactive) | > 61.2 µM (inactive) | 28.8 µM (inactive) | 39.5 µM (inactive) | > 40.6 µM (inactive) | 16.6 µM (inactive) | 35.5 µM (inactive) | 24.6 µM (inactive) | > 39.3 µM (inactive) | 18.5 µM (inactive) | 26.4 µM (inactive) | 29.9 µM (inactive) | > 39.8 µM (inactive) | 19.8 µM (inactive) | 25.1 µM (inactive) | 23.5 µM (inactive) | 25.2 µM (inactive) | 24.9 µM (inactive) |
| CC/C=C\C=C/C(=O)N/C=C/CCC | > 100 µM (inactive) | > 100 µM (inactive) | > 100 µM (inactive) | > 100 µM (inactive) | 27.7 µM (inactive) | > 100 µM (inactive) | > 100 µM (inactive) | > 100 µM (inactive) | 62.8 µM (inactive) | > 100 µM (inactive) | 23.5 µM (inactive) | > 100 µM (inactive) | 17.5 µM (inactive) | > 100 µM (inactive) | 78.3 µM (inactive) | 40.2 µM (inactive) | > 100 µM (inactive) | > 100 µM (inactive) | > 100 µM (inactive) | > 100 µM (inactive) |
| Cc1nc2c(sc(=S)n2-c2ccccc2)c2nc3ncccc3n12 | 54.5 µM (inactive) | > 100 µM (inactive) | 46.2 µM (inactive) | > 100 µM (inactive) | > 100 µM (inactive) | 33.7 µM (inactive) | 23.6 µM (inactive) | > 100 µM (inactive) | > 100 µM (inactive) | > 100 µM (inactive) | > 100 µM (inactive) | > 100 µM (inactive) | > 100 µM (inactive) | > 100 µM (inactive) | > 100 µM (inactive) | > 100 µM (inactive) | > 100 µM (inactive) | 45.1 µM (inactive) | 34.8 µM (inactive) | > 100 µM (inactive) |
| COc1ccc(C(=O)/C=C/c2cc(O)c(O)c(F)c2F)c(OC)c1 | 27.2 µM (inactive) | 13.8 µM (inactive) | 10.3 µM (inactive) | 20.8 µM (inactive) | 46.7 µM (inactive) | 22.5 µM (inactive) | 22.4 µM (inactive) | 30 µM (inactive) | 15.2 µM (inactive) | 35.2 µM (inactive) | 20.1 µM (inactive) | 22.8 µM (inactive) | 11.2 µM (inactive) | 61.4 µM (inactive) | 3.22 µM (inactive) | 8.83 µM (inactive) | 25.6 µM (inactive) | 18.8 µM (inactive) | 18.2 µM (inactive) | 11.4 µM (inactive) |
| COC(=O)CSSCc1ccc([N+](=O)[O-])cc1 | 26.8 µM (inactive) | 32 µM (inactive) | 14.8 µM (inactive) | 16.3 µM (inactive) | 27.1 µM (inactive) | 16.2 µM (inactive) | 20 µM (inactive) | 18 µM (inactive) | 24.1 µM (inactive) | 10.6 µM (inactive) | 21.6 µM (inactive) | 19.8 µM (inactive) | 13.4 µM (inactive) | 21.2 µM (inactive) | 7.33 µM (inactive) | 18 µM (inactive) | 2.23 µM (inactive) | 19.1 µM (inactive) | 18.4 µM (inactive) | 15.1 µM (inactive) |

Reference: ChEMBL document CHEMBL1201862, “PubChem BioAssay data set” (2004)
